In the supplement of paper PMC10307832:

What was measured:
Assay in all cases: relative viability (nuclei count vs DMSO), 5 days (fraction); higher = more cells survive
COR-L23 = test system: COR-L23
In short: (§1)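 Dosing by pin tool came one day after lung cancer cell lines were seeded in 1536-well plates, using either one drug or a fixed anchor-drug dose plus five library-drug doses (not always all listed) in √10 steps. After 5 days, nuclei were counted on 4× images. Relative viability is treated-well nuclei count divided by vehicle-well nuclei count, and values are medians of duplicate plates.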

HOP-62 = test system: HOP-62
In short: as §1

UMC-11 = test system: UMC-11
In short: as §1

NCI-H1755 = test system: NCI-H1755
In short: as §1

NCI-H358 = test system: NCI-H358
In short: as §1

COR-L 105 = test system: COR-L 105
In short: as §1

NCI-H647 = test system: NCI-H647
In short: as §1

NCI-H1734 = test system: NCI-H1734
In short: as §1

NCI-H1395 = test system: NCI-H1395
In short: as §1

HARA = test system: HARA
In short: as §1

NCI-H1792 = test system: NCI-H1792
In short: as §1

SMILES: Cc1sc2c(c1C)C(c1ccc(Cl)cc1)=N[C@@H](CC(=O)OC(C)(C)C)c1nnc(C)n1-2 [JQ1] + CCNC(=O)c1noc(-c2cc(C(C)C)c(O)cc2O)c1-c1ccc(CN2CCOCC2)cc1 [Luminespib] (partner 0.01 µM)
- relative viability (COR-L23; first compound 0.04 µM): 0.649
- relative viability (COR-L23; first compound 0.1265 µM): 0.6
- relative viability (COR-L23; first compound 0.4 µM): 0.504
- relative viability (COR-L23; first compound 1.265 µM): 0.207
- relative viability (COR-L23; first compound 4 µM): 0.114
- relative viability (HOP-62; first compound 0.04 µM): 0.867
- relative viability (HOP-62; first compound 0.1265 µM): 0.824
- relative viability (HOP-62; first compound 0.4 µM): 0.477
- relative viability (HOP-62; first compound 1.265 µM): 0.309
- relative viability (HOP-62; first compound 4 µM): 0.128
- relative viability (UMC-11; first compound 0.04 µM): 0.865
- relative viability (UMC-11; first compound 0.1265 µM): 0.83
- relative viability (UMC-11; first compound 0.4 µM): 0.336
- relative viability (UMC-11; first compound 1.265 µM): 0.278
- relative viability (UMC-11; first compound 4 µM): 0.219
- relative viability (NCI-H1755; first compound 0.04 µM): 0.645
- relative viability (NCI-H1755; first compound 0.1265 µM): 0.283
- relative viability (NCI-H1755; first compound 0.4 µM): 0.539
- relative viability (NCI-H1755; first compound 1.265 µM): 0.393
- relative viability (NCI-H1755; first compound 4 µM): 0.442
- relative viability (NCI-H358; first compound 0.04 µM): 0.305
- relative viability (NCI-H358; first compound 0.1265 µM): 0.398
- relative viability (NCI-H358; first compound 0.4 µM): 0.401
- relative viability (NCI-H358; first compound 1.265 µM): 0.385
- relative viability (NCI-H358; first compound 4 µM): 0.27
- relative viability (COR-L 105; first compound 0.04 µM): 0.66
- relative viability (COR-L 105; first compound 0.1265 µM): 0.49
- relative viability (COR-L 105; first compound 0.4 µM): 0.369
- relative viability (COR-L 105; first compound 1.265 µM): 0.239
- relative viability (COR-L 105; first compound 4 µM): 0.206
- relative viability (NCI-H647; first compound 0.04 µM): 0.239
- relative viability (NCI-H647; first compound 0.1265 µM): 0.113
- relative viability (NCI-H647; first compound 0.4 µM): 0.134
- relative viability (NCI-H647; first compound 1.265 µM): 0.113
- relative viability (NCI-H647; first compound 4 µM): 0.073
- relative viability (NCI-H1734; first compound 0.04 µM): 0.254
- relative viability (NCI-H1734; first compound 0.1265 µM): 0.165
- relative viability (NCI-H1734; first compound 0.4 µM): 0.158
- relative viability (NCI-H1734; first compound 1.265 µM): 0.124
- relative viability (NCI-H1734; first compound 4 µM): 0.173
- relative viability (NCI-H1395; first compound 0.04 µM): 0.761
- relative viability (NCI-H1395; first compound 0.1265 µM): 0.681
- relative viability (NCI-H1395; first compound 0.4 µM): 0.808
- relative viability (NCI-H1395; first compound 1.265 µM): 0.399
- relative viability (NCI-H1395; first compound 4 µM): 0.458
- relative viability (HARA; first compound 0.04 µM): 0.65
- relative viability (HARA; first compound 0.1265 µM): 0.508
- relative viability (HARA; first compound 0.4 µM): 0.374
- relative viability (HARA; first compound 1.265 µM): 0.168
- relative viability (HARA; first compound 4 µM): 0.153
- relative viability (NCI-H1792; first compound 0.04 µM): 0.522
- relative viability (NCI-H1792; first compound 0.1265 µM): 0.437
- relative viability (NCI-H1792; first compound 0.4 µM): 0.383
- relative viability (NCI-H1792; first compound 1.265 µM): 0.201
